Measured values as given in article PMC7140522, “The Pyrazolo[3,4-d]pyrimidine Derivative, SCO-201, Reverses Multidrug Resistance Mediated by ABCG2/BCRP” (Cells, 2020).
Where two headings read alike, the source gives them in different places.

Tests used:
CYP1A = assay: CYP induction in human hepatocytes, CYP1A enzyme activity; type: in vitro ADME
CYP2C8 = CYP2C8 (Homo sapiens, UniProt P10632); assay: biochemical
BCRP [1] = target: T1, BCRP (Homo sapiens, UniProt Q9UNQ0); assay: Cellular dye efflux assay (Hoechst 33342) in HT29SN-38-RES cells; type: cell-based; parameters: endogenous in cells; host or cells: HT29 SN-38-RES (drug-selected HT29)
T1 sequence (Q9UNQ0 1-655): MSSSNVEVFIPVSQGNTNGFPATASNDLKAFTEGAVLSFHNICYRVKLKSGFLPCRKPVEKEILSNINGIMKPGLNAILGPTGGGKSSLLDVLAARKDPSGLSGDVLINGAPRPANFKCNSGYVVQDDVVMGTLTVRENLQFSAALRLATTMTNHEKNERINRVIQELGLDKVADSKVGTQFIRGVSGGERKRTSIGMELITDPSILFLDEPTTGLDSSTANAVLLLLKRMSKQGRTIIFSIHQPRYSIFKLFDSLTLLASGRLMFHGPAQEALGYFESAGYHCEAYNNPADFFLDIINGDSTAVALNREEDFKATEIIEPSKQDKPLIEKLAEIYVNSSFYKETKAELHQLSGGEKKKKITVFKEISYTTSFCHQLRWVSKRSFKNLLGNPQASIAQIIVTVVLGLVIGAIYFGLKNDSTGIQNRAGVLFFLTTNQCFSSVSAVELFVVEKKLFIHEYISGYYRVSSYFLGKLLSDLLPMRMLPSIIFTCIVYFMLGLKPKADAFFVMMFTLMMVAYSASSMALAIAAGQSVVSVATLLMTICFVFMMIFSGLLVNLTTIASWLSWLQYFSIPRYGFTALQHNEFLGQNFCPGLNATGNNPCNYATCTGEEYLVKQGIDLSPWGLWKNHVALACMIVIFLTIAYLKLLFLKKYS

ABCG2 (BCRP) = target: T2, ABCG2 (BCRP) (Homo sapiens, UniProt Q9UNQ0); assay: Hoechst 33342 accumulation assay in MDCK-II-BCRP cells; type: cell-based; conditions: MDCK cells overexpressing BCRP, steady-state fluorescence
T2 construct: expressed in transfected cells; host or cells: MDCK-II (canine kidney)

BCRP [2] = target: T1, BCRP; assay: Fluorometric transporter inhibition, BCRP-CHO; type: in vitro ADME; conditions: Hoechst 33342 substrate
Method: Cells were seeded in a 96-well plate (20,000 cells/well) and used on days 2 or 3 post-seeding. […] Subsequently, substrate was added to the plate followed by 20 min incubation at 37 °C. The plate was then washed with cold assay buffer followed by fluorescence reading on a plate reader. The tested transporters, cell lines, substrates, and reference inhibitors are shown in the Supplementary Materials (Tables S1 and S2).
110 Table S1. […]
120 transporters (P-gp and BCRP), increased fluorescence signal represents inhibition of the transporter activity.
The IC50 values are shown for the analysed transporters with […]

[3] = parameters: method as in PMID 26260222; conditions: mice; cited from earlier work
CYP2B6 = assay: CYP induction in human hepatocytes, CYP2B6 enzyme activity; type: in vitro ADME
BCRP [4] = target: T1, BCRP; assay: […] ATPase assay with recombinant BCRP membranes; type: biochemical; parameters: purchased Solvo Biotechnology (via Sigma-Aldrich/Merck) SB-BCRP-M
Method: After incubation with test compounds, MgATP was added to each well and incubated at 37 °C for 10 min. The ATPase reaction was stopped by the addition of 1x Developer solution at room temperature (RT). Two minutes after, 100 µL Blocker solution was added and the plate was incubated for 30 min at 37 °C for 30 min. The optical densities were measured at 620 nm using a PowerWave X Microplate spectrophotometer (BioTek, Bad Friedrichshall, Germany).

CYP3A [5] = assay: CYP induction in human hepatocytes, CYP3A mRNA; type: in vitro ADME; conditions: plated human hepatocytes
CYP2C9 = CYP2C9 (Homo sapiens, UniProt P11712); assay: CYP inhibition, CYP2C9; type: in vitro ADME; conditions: Human liver microsomes, diclofenac substrate
CYP3A [6] = target: CYP3A (Homo sapiens, UniProt P08684); assay: in vitro; conditions: both, pooled human liver microsomes, pH 7.4, probe testosterone
Chain of CYP3A (Homo sapiens, UniProt P08684) (P08684 2-503): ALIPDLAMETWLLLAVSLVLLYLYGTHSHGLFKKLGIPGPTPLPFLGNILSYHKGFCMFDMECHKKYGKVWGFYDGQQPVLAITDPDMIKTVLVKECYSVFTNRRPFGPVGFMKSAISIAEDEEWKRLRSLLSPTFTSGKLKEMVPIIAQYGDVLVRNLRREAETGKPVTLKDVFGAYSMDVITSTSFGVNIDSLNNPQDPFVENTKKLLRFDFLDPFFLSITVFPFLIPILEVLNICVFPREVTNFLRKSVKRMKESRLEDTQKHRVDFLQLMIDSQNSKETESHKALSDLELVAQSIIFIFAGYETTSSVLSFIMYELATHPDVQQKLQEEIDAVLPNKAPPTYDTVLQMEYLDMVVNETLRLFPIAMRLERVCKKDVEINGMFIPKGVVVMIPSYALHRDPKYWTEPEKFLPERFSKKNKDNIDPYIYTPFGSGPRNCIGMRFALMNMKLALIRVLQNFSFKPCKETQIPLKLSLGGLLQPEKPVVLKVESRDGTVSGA

Chain of CYP2C8 (P10632 whole entry): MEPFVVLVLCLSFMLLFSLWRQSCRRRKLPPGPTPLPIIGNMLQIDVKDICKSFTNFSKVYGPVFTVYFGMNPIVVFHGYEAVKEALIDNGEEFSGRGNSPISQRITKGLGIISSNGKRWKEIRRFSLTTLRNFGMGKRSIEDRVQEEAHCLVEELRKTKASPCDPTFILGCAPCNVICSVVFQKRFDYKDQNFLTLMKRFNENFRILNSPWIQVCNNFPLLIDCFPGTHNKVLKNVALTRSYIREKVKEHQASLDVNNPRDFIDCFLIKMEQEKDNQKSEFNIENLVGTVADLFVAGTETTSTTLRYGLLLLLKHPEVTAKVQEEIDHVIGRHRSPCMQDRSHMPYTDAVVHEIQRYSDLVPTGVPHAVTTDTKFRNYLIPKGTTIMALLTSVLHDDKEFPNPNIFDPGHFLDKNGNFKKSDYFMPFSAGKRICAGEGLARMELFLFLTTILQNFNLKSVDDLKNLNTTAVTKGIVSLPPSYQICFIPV
Chain of CYP2C9 (P11712 whole entry): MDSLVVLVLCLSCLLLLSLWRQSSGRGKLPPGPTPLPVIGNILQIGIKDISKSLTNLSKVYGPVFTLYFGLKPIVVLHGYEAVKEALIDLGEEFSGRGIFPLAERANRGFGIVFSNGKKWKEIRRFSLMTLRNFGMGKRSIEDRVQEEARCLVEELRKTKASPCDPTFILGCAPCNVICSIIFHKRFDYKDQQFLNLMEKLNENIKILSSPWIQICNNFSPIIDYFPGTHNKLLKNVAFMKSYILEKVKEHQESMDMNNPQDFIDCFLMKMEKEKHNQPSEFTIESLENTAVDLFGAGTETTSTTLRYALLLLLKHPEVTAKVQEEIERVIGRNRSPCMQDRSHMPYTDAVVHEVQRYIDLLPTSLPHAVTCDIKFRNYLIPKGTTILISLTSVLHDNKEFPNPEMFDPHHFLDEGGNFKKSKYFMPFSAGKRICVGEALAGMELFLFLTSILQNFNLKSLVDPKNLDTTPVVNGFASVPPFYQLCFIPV

Mean Fold Enzyme Activity Induction at 1 × 10^−4 M (CYP1A; Donor 1): 1
Mean Fold Enzyme Activity Induction at 1 × 10^−4 M (CYP1A; Donor 2): 0.7
Mean Fold Enzyme Activity Induction at 1 × 10^−4 M (CYP1A; Donor 3): 0.7
IC50 (CYP2C8): > 100000 nM
IC50 (BCRP [1]; imaging cytometry, read-out: IC50, accumulation of Hoechst dye): 450 nM
IC50 (ABCG2 (BCRP)): 175 nM
IC50 (BCRP [2]): 1700 nM
Mean Fold Enzyme Activity Induction at 1 × 10^−4 M (CYP2B6; Donor 1): 0.8
Mean Fold Enzyme Activity Induction at 1 × 10^−4 M (CYP2B6; Donor 2): 0.9
Mean Fold Enzyme Activity Induction at 1 × 10^−4 M (CYP2B6; Donor 3): 0.6
ATPase activity of BCRP, sulfasalazine-stimulated (BCRP [4]; SCO-201 added to sulfasalazine-stimulated BCRP): decreased in a dose-dependent manner
ATPase activity of BCRP, basal (BCRP [4]; in the absence of sulfasalazine): decreased dose-dependently
SN-38-stimulated ATPase activity of BCRP (BCRP [4]; in the presence of 0.5 µM or 1.5 µM SCO-201): shifted downwards
fold induction at 2 days (CYP3A [5]; Donor 1, read-out: Mean Fold Induction of mRNA at 1× 10^−4 M): 0.25
fold induction at 2 days (CYP3A [5]; Donor 2, read-out: Mean Fold Induction of mRNA at 1× 10^−4 M): 0.25
fold induction at 2 days (CYP3A [5]; Donor 3, read-out: Mean Fold Induction of mRNA at 1× 10^−4 M): 0.32
IC50 (CYP2C9): > 100000 nM
IC50 at 10 min (CYP3A [6]): > 100000 nM
SMILES: Nc1nc(-c2ccccc2)nc2[nH]nc(Nc3ccc(C(F)(F)F)cc3)c12 [SCO-201]
Hoechst accumulation in resistant cells (BCRP [1]; fluorescence microscopy and imaging cytometry): accumulated to the level of the parental control cells
oral activity [3]: orally active
